Source: patent publication US9133235B2, “Macrocyclic antagonists of the motilin receptor for treatment of gastrointestinal dysmotility disorders” (Ocera Therapeutics, Inc., priority 2006, dated 2015)

The compounds below were run against human motilin receptor (Homo sapiens, UniProt O43193) (assay: Competitive radioligand binding assay (motilin receptor)). Conditions: [125I]-motilin competition, membranes of CHO cells with human motilin receptor; read-out: Ki.
Parameters: purchased PerkinElmer (SignalScreen) 6110544; host or cells: CHO cells, stably transfected; membranes
Protocol: A. Competitive Radioligand Binding Assay (Motilin Receptor)
The competitive binding assay at the human motilin receptor was carried out analogously to assays described in the literature.
• Membranes were prepared from CHO cells stably transfected with the human motilin receptor and utilized at a quantity of 1.5 μg/assay point. [PerkinElmer™ SignalScreen Product #6110544] • [^125I]-Motilin (PerkinElmer, #NEX-378); final concentration: 0.04-0.06 nM • Motilin (Bachem™, #H-4385); final concentration: 1 μM • Multiscreen Harvest plates-GF/B (Millipore™, #MAHFB1H60) • Deep-well polypropylene titer plate (Beckman Coulter™, #267006) • TopSeal-A (PerkinElmer, #6005185) • Bottom seal (Millipore, #MATAH0P00) • MicroScint-0 (PerkinElmer, #6013611) • Binding Buffer: 50 mM Tris-HCl (pH 7.4), 10 mM MgCl2, 1 mM EDTA, 0.1% BSA Assay Volumes: • 150 μL of membranes diluted in binding buffer • 10 μL of compound diluted in binding buffer • 10 μL of radioligand ([^125I]-Motilin) diluted in binding buffer Final Test Concentrations (N=11) for Compounds: • 10, 5.0, 2.0, 1.0, 0.50, 0.20, 0.10, 0.050, 0.020, 0.010, 0.0050 μM. Compound Handling:
Compounds were provided frozen on dry ice at a stock concentration of 10 mM diluted in 100% DMSO and stored at −20° C. until the day of testing. On the test day, compounds were allowed to thaw at room temperature and than diluted in assay buffer according to the desired test concentrations. Under these conditions, the maximum final DMSO concentration in the assay was 0.5%.
In deep-well plates, diluted cell membranes (1.5 μg/mL) are combined with 10 μL of either binding buffer (total binding, N=5), 1 μM motilin (non-specific binding, N=3) or the appropriate concentration of test compound. The reaction is initiated by addition of 10 μL of [^125I]-motilin (final conc. 0.04-0.06 nM) to each well. Plates are sealed with TopSeal-A, vortexed gently and incubated at room temperature for 2 hours. The reaction is arrested by filtering samples through pre-soaked (0.3% polyethyleneimine, 2 h) Multiscreen Harvest plates using a Tomtec Harvester, washed 9 times with 500 μL of cold 50 mM Tris-HCl (pH 7.4), and than plates are air-dried in a fumehood for 30 minutes. A bottom seal is applied to the plates prior to the addition of 25 μL of MicroScint-0 to each well. Plates are than sealed with TopSeal-A and counted for 30 sec per well on a TopCount Microplate Scintillation and Luminescence Counter (PerkinElmer) where results are expressed as counts per minute (cpm).
Data are analyzed by GraphPad™ Prism® (GraphPad Software, San Diego, Calif.) using a variable slope non-linear regression analysis.
[formula] where total and non-specific binding represent the cpm obtained in the absence or presence of 1 μM motilin, respectively.

Chain of human motilin receptor (O43193 whole entry): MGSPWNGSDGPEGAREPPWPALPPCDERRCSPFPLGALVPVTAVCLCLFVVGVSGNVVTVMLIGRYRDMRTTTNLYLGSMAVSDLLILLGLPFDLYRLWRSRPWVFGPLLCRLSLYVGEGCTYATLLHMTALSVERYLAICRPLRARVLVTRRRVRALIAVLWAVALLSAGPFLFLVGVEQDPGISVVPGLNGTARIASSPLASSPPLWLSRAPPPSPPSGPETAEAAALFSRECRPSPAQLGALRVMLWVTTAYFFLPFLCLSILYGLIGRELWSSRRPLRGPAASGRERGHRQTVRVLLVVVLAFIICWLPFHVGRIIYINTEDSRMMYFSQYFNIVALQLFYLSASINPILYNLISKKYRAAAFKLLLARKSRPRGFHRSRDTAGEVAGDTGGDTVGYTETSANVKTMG

`CC(C)[C@H]1NC(=O)[C@@H](Cc2cccc(Cl)c2)NCCOc2ccccc2CCCNC(=O)[C@H](CCNC(=N)N)NC1=O` [Compound 507] and `CC(C)[C@H]1NC(=O)[C@@H](Cc2cccc(Cl)c2)NCCOc2ccccc2CCCNC(=O)[C@H](CC(=N)N)NC1=O` [Compound 518] cannot be ordered by Ki: ≤ 0.1 µM for the first, ≤ 0.1 µM for the second.

`CC(C)[C@H]1NC(=O)[C@@H](Cc2cccc(Cl)c2)NCCOc2ccccc2CCCNC(=O)[C@H](CNc2nccs2)NC1=O` [Compound 509] and `CC(C)[C@H]1NC(=O)[C@@H](Cc2cccc(Cl)c2)NCCOc2ccccc2CCCNC(=O)[C@H](CNC2=NCCCN2)NC1=O` [Compound 521] cannot be ordered by Ki: ≤ 0.1 µM for the first, ≤ 0.1 µM for the second.

`CC(C)[C@H]1NC(=O)[C@@H](Cc2cccc(F)c2)NCCOc2ccccc2C[C@@H](C)CNC(=O)[C@H](CN(C)C)NC1=O` [Compound 514] and `CC(C)[C@H]1NC(=O)[C@@H](Cc2cccc(F)c2)NCCOc2ccccc2C[C@@H](C)CNC(=O)[C@H](CC2CC2)NC1=O` [Compound 587] cannot be ordered by Ki: ≤ 1 µM for the first, ≤ 0.1 µM for the second.

`CC(C)[C@H]1NC(=O)[C@@H](Cc2cccc(Cl)c2)NCCOc2ccccc2CCCNC(=O)[C@H](CN/C(N)=N/C#N)NC1=O` [Compound 522] and `CC(C)[C@H]1NC(=O)[C@@H](Cc2ccc(Cl)cc2)NCCOc2ccccc2CCCNC(=O)[C@H](CNC(N)=O)NC1=O` [Compound 577] cannot be ordered by Ki: ≤ 0.1 µM for the first, ≤ 1 µM for the second.

`CC(C)[C@H]1NC(=O)[C@@H](Cc2cccc(C(F)(F)F)c2)NCCOc2ccccc2CCCNC(=O)[C@H](Cn2nncc2CN)NC1=O` [Compound 523] and `Cc1cnnn1C[C@@H]1NC(=O)[C@@H](C(C)C)NC(=O)[C@@H](Cc2cccc(C(F)(F)F)c2)NCCOc2ccccc2CCCNC1=O` [Compound 526] cannot be ordered by Ki: ≤ 0.1 µM for the first, ≤ 0.1 µM for the second.

`CC(C)[C@H]1NC(=O)[C@@H](Cc2cccc(C(F)(F)F)c2)NCCOc2ccccc2CCCNC(=O)[C@H](CNc2ncccn2)NC1=O` [Compound 524] and `Cc1nnn(C[C@@H]2NC(=O)[C@@H](C(C)C)NC(=O)[C@@H](Cc3cccc(C(F)(F)F)c3)NCCOc3ccccc3CCCNC2=O)c1C` [Compound 528] cannot be ordered by Ki: ≤ 0.1 µM for the first, ≤ 0.1 µM for the second.

`CC(C)[C@H]1NC(=O)[C@@H](Cc2cccc(C(F)(F)F)c2)NCCOc2ccccc2CCCNC(=O)[C@H](CN2CCOCC2)NC1=O` [Compound 525] and `Cc1nnnn1C[C@@H]1NC(=O)[C@@H](C(C)C)NC(=O)[C@@H](Cc2cccc(C(F)(F)F)c2)NCCOc2ccccc2CCCNC1=O` [Compound 527] cannot be ordered by Ki: ≤ 0.1 µM for the first, ≤ 0.1 µM for the second.

`CC(C)C[C@@H]1NC(=O)[C@@H](C(C)C)NC(=O)[C@@H](Cc2cccc(F)c2)N[C@@H](C)COc2ccccc2CCCNC1=O` [Compound 556] and `CCC[C@@H]1NC(=O)[C@@H](C(C)C)NC(=O)[C@@H](Cc2cccc(OC)c2)N[C@@H](C)COc2ccccc2CCCNC1=O` [Compound 562] cannot be ordered by Ki: ≤ 0.01 µM for the first, ≤ 0.01 µM for the second.

`CCC[C@@H]1NC(=O)[C@@H](CC)NC(=O)[C@@H](Cc2cccc(F)c2)N[C@@H](C)COc2ccccc2CCCNC1=O` [Compound 558] and `CCC[C@@H]1NC(=O)[C@@H](C(C)C)NC(=O)[C@@H](Cc2ccc(F)cc2)N[C@@H](C)COc2ccccc2CCCNC1=O` [Compound 560] cannot be ordered by Ki: ≤ 0.01 µM for the first, ≤ 0.01 µM for the second.

`CC(C)[C@H]1NC(=O)[C@@H](Cc2ccc(F)cc2)N[C@@H](C)COc2ccccc2CCCNC(=O)[C@H](CC2CC2)NC1=O` [Compound 559] and `CC(C)[C@H]1NC(=O)[C@@H](Cc2ccc(F)cc2)NCCOc2ccccc2C[C@H](C)CNC(=O)[C@H](CC2CC2)NC1=O` [Compound 567] cannot be ordered by Ki: ≤ 0.01 µM for the first, ≤ 0.01 µM for the second.

`CCC[C@@H]1NC(=O)[C@@H](C(C)C)NC(=O)[C@@H](Cc2ccc(F)c(F)c2)N[C@@H](C)COc2ccccc2CCCNC1=O` [Compound 561] and `CCC[C@@H]1NC(=O)[C@@H](C(C)C)NC(=O)[C@@H](Cc2ccc(C(F)(F)F)cc2)NCCOc2ccccc2CCCNC1=O` [Compound 575] cannot be ordered by Ki: ≤ 0.01 µM for the first, ≤ 0.1 µM for the second.

`C[C@@H]1CNC(=O)[C@H](CC2CC2)NC(=O)[C@@H](C2CC2)NC(=O)[C@@H](Cc2cccc(F)c2)NCCOc2ccccc2C1` [Compound 566] and `CC(C)[C@H]1NC(=O)[C@@H](Cc2cccc(F)c2)NCCOc2ccccc2C[C@H](C)CNC(=O)[C@H](CC2CC2)NC1=O` [Compound 588] cannot be ordered by Ki: ≤ 0.01 µM for the first, ≤ 0.01 µM for the second.

`CC(C)[C@H]1NC(=O)[C@@H](Cc2ccc(Cl)cc2)NCCOc2ccccc2CCCNC(=O)[C@H](CNS(C)(=O)=O)NC1=O` [Compound 576] and `CC(C)NC[C@@H]1NC(=O)[C@@H](C(C)C)NC(=O)[C@@H](Cc2ccc(Cl)cc2)NCCOc2ccccc2CCCNC1=O` [Compound 581] cannot be ordered by Ki: ≤ 1 µM for the first, ≤ 0.1 µM for the second.

`CC(C)NC[C@@H]1NC(=O)[C@@H](C(C)C)NC(=O)[C@@H](Cc2ccc(O)cc2)NCCOc2ccccc2CCCNC1=O` [Compound 579] and `COc1ccc(C[C@H]2NCCOc3ccccc3CCCNC(=O)[C@H](CCO)NC(=O)[C@@H](C(C)C)NC2=O)cc1` [Compound 583] cannot be ordered by Ki: ≤ 1 µM for the first, ≤ 1 µM for the second.

`CC(C)[C@H]1NC(=O)[C@@H](Cc2cccc(F)c2)NCCOc2ccccc2CCCNC(=O)[C@H](CC2CC2)NC1=O` [Compound 584] was tested, and the Ki was ≤ 0.1 µM.

Same assay, conditions: previously determined during membrane characterization

`CC[C@H](C)[C@H](NC(=O)[C@@H]1CCCN1C(=O)[C@@H](NC(=O)[C@@H](N)Cc1ccccc1)C(C)C)C(=O)N[C@@H](Cc1ccccc1)C(=O)N[C@H](C(=O)N[C@@H](Cc1ccc(O)cc1)C(=O)NCC(=O)N[C@@H](CCC(=O)O)C(=O)N[C@@H](CC(C)C)C(=O)N[C@@H](CCC(N)=O)C(=O)N[C@@H](CCCNC(=N)N)C(=O)N[C@@H](CCSC)C(=O)N[C@@H](CCC(N)=O)C(=O)N[C@@H](CCC(=O)O)C(=O)N[C@@H](CCCCN)C(=O)N[C@@H](CCC(=O)O)C(=O)N[C@@H](CCCNC(=N)N)C(=O)N[C@@H](CC(N)=O)C(=O)N[C@@H](CCCCN)C(=O)NCC(=O)N[C@@H](CCC(N)=O)C(=O)O)[C@@H](C)O` [[^125I]-motilin, [^125I]-Motilin, reference compound] showed a Kd of 0.00016 µM.
